Measurements taken from paper PMC11395333, “The Bifunctional Dimer Caffeine-Indan Attenuates α-Synuclein Misfolding, Neurodegeneration and Behavioral Deficits after Chronic Stimulation of Adenosine A1 Receptors” (International Journal of Molecular Sciences, 2024).

How the values were obtained:
male Sprague-Dawley rats = assay: Y-maze test after 7-day chronic i.p. CPA injection; format: in vivo, rat
Excerpt: All animals were housed and treated humanely following the guidelines from the following governing bodies: National Research Council (US) Committee for the Update of the Guide for the Care and Use of Laboratory Animals (Washington DC, USA, 2011); Canadian Council on Animal Care (CCAC); and the University of Saskatchewan Animal Research Ethics Board (AREB), which approved our Animal Use Protocol (#20070090 and #20170079). The animals were housed in cages of two, with access to food pellets and water ad libitum. The four treatments of the Sprague-Dawley rats consisted of the following: 1. Control (0.1% DMSO in 0.9% saline); 2. CPA; 3. […] Drugs were dissolved at 3 mg/mL in DMSO, and each drug was administered to the animals by daily i.p. injections (3 mg/kg or 5 mg/kg body weight) for 7 consecutive days. […] Then, on days 8 and 9 following the final injections, the animals were subjected to several behavioral tests. The Y-maze or the modified Y-maze is a rodent behavior test used to assess short-term spatial memory based on the innate inclination of animals to explore new areas not previously seen. In this study, the Y-maze test is used to assess short-term memory, especially hippocampal-dependent spatial memory. The maze is shaped like a “Y”, with each arm oriented at a 120° angle from one another. The arms are 50 cm in length, 15 cm in width and 35 cm in depth. For the first trial, which lasts 15 min, the animal is placed at the beginning of the “Start arm” and is free to explore this arm and another one (referred to as the “Old arm”), while the remaining arm (“New arm”) is blocked. This trial should give the animal time to explore and become acquainted with the maze’s two arms. After a resting period of 90 min, the blocked arm is opened, and the animal is placed again at the “Start arm”. […] This trial is then used to calculate the percentage of time the animals spent in each arm. A video camera was used to record the animal movement in both trials. Each experiment was repeated at least fifteen times per treatment and the average of each treatment is presented in the bar graphs as average means ± standard error of the mean (SEM).

α-Syn = assay: Immunohistochemistry and Thioflavin-S staining of brain slices (α-Syn expression and aggregation); format: in vivo, rat
Excerpt: All animals were housed and treated humanely following the guidelines from the following governing bodies: National Research Council (US) Committee for the Update of the Guide for the Care and Use of Laboratory Animals (Washington DC, USA, 2011); Canadian Council on Animal Care (CCAC); and the University of Saskatchewan Animal Research Ethics Board (AREB), which approved our Animal Use Protocol (#20070090 and #20170079). The animals were housed in cages of two, with access to food pellets and water ad libitum. The four treatments of the Sprague-Dawley rats consisted of the following: 1. Control (0.1% DMSO in 0.9% saline); 2. CPA; 3. […] Drugs were dissolved at 3 mg/mL in DMSO, and each drug was administered to the animals by daily i.p. injections (3 mg/kg or 5 mg/kg body weight) for 7 consecutive days. […] Then, on days 8 and 9 following the final injections, the animals were subjected to several behavioral tests.
Anesthetized rats were transcardially perfused with 0.9% saline, and then fixed with 4% paraformaldehyde. The extracted brains were put in 30% cryoprotected sucrose solution for 48 h prior to slicing. The brains were initially frozen at −40 °C (BFS-30 mp controllers) and sliced with the help of a microtome (Leica SM2010 R Sliding controller). Coronal slices of 40 μm were then washed three times in 0.1 M phosphate-buffered saline followed by 1 h blocking at room temperature with blocking buffer. The buffer solution components have been previously described. The slices were then incubated overnight at 4 °C with the following primary antibodies: 1:200 mouse monoclonal to α-synuclein (Abcam Inc, Toronto, ON, Canada; Cat# ab280377) and 1:200 rabbit polyclonal to tyrosine hydroxylase (TH) (Millipore-Sigma, Oakville, ON, Canada; Cat# AB152). Subsequently, slices were then incubated for 1 h in the dark at room temperature with the following secondary antibodies (1:1000): AlexaFluor-555-conjugated anti-mouse (Cat# A-21127) and AlexaFluor-647-conjugated anti-rabbit (Cat# A-21244) purchased from Invitrogen (Thermo Fisher Scientific, Waltham, MA, USA). Slices were then treated with Thioflavin-S (see further details below). Lastly, the slices were incubated for 5 min at room temperature with DAPI (2 mg/mL) from Invitrogen (Thermo Fisher Scientific; Cat# R37606) and images were taken using a Zeiss LSM700 confocal microscope (Carl Zeiss Group, Toronto, ON, Canada) and analyzed with ImageJ (Open-Source Public Domain software, United States National Institute of Health (US NIH), Bethesda, MD, USA). Images of the hippocampal CA1 pyramidal layer and the SN pars compacta were obtained using the Zeiss Plan-Apochromat 63X/1.4 oil objective lens (Carl Zeiss Group, Toronto, ON, Canada). Images were acquired as Z-stack images of hippocampal or SN regions with 12–13 Z-stack images taken at 1 µm intervals near the middles of brain slices. Two Z-stack images were taken along the hippocampal CA1 or SN pars compacta region for each slice, and immunofluorescence signals were averaged using densitometry analysis.
Thioflavin-S (Thio-S) is a fluorescent marker (Sigma-Aldrich, Oakville, ON, Canada; Cat# T1892-25G) that detects α-Syn aggregates and amyloid plaques. Coronal slices of 40 μm were firstly treated with 0.3% KMnO4 for 4 min, followed by a 30 min incubation with 1 M phosphate buffered saline at 4 °C. These slices were then stained with 0.05% Thioflavin-S in 50% ethanol in the dark for 8 min, rinsed with 80% ethanol twice, followed by three rinses with ultra-pure water for 30 s. Finally, the slices were incubated again with 1 M phosphate buffered saline for 30 min at 4 °C before starting the DAPI stain. The FITC filter (488 nm laser line) was used to image Thioflavin-S using a Zeiss LSM700 confocal microscope (Carl Zeiss Group, Canada) and images were analyzed with ImageJ (Public Domain).

[1] = CPA 3 mg/kg i.p. daily for 7 days, alone

Row | Structure (SMILES) | Y-maze, hippocampal-dependent spatial memory (male Sprague-Dawley rats; [1]) | α-Syn levels in SNc and CA1 hippocampal region (α-Syn; [1]) | Thio-S levels in SNc (α-Syn; CPA 3 mg/kg i.p. daily for 7 days, alone, compared to control) | Y-maze, time spent in the start arm (male Sprague-Dawley rats; 3 mg/kg i.p. with 3 mg/kg CPA, 7 days) | Y-maze, cognitive deficits (male Sprague-Dawley rats; 5 mg/kg i.p. with 3 mg/kg CPA, 7 days) | Y-maze, percentage of time spent in the novel arm (male Sprague-Dawley rats; 3 or 5 mg/kg i.p. co-administered with 3 mg/kg CPA, 7 days) | Thio-S levels in CA1 hippocampus (α-Syn; 3 mg/kg + CPA) | Thio-S levels in SNc (α-Syn; 3 mg/kg + CPA, compared to control) | Thio-S levels in SNc (α-Syn; 5 mg/kg + CPA) | Thio-S levels in hippocampus (α-Syn; 5 mg/kg + CPA) | α-Syn levels in SNc and CA1 hippocampal region (α-Syn; co-treatment with 3 mg/kg CPA, 7 days)
1 | OC[C@H]1O[C@@H](n2cnc3c(NC4CCCC4)ncnc32)[C@H](O)[C@@H]1O [CPA, N^6-Cyclopentyladenosine, reference compound] | induced hippocampal-dependent spatial memory deficits | markedly increased | significant increase in Thio-S levels |  |  |  |  |  |  |  | 
2 | Cn1c(=O)c2c(nc(CCCCCCNC3CCc4ccccc43)n2C)n(C)c1=O (centres unmarked) [C8–6–I] |  |  |  | approximately 45% | significantly ameliorated the cognitive deficits caused by CPA | attenuated the learning deficits caused by CPA | abolished the CPA-induced Thio-S levels | significant increase in Thio-S levels | reached control levels | moderate but significant Thio-S level increase | prevented this α-Syn upregulation
